Consider 6 molecules from ChEMBL document CHEMBL1157739, “5'-O-dephosphorylated 2',5'-oligoadenylate (2-5A) with 8-methyladenosine at the 2'-terminus activates human RNase L” (Bioorg Med Chem Lett, 2010).

Calls of active or inactive are those of the source. The rule behind the calls is not given here.

Data set [1] concerns the target T1, 2-5A-dependent ribonuclease (Homo sapiens, UniProt Q05823).
T1 sequence (Q05823 whole entry): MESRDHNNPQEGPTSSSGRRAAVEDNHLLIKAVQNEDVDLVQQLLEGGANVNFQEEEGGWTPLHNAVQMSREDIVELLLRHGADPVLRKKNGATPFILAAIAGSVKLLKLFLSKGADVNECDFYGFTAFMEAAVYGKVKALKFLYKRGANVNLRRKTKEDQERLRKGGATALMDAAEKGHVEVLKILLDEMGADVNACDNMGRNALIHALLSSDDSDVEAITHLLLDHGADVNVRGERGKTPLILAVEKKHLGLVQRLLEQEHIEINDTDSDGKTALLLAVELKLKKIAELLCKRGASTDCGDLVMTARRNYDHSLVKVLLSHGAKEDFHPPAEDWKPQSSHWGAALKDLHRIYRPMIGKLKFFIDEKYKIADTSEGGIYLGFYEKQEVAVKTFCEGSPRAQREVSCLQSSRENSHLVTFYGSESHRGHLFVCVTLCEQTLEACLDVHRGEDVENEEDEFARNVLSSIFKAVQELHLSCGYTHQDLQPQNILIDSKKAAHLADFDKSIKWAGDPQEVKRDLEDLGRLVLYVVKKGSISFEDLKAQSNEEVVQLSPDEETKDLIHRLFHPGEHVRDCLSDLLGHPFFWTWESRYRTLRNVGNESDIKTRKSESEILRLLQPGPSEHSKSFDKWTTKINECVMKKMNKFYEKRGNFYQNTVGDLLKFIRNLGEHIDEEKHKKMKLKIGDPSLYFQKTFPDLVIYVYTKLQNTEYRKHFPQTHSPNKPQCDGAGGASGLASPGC
As to the kind of experiment: […] of human RNaseL ANK domain expressed in Escherichia coli assessed as 5' flurescein-r(C11U2C7)-3' RNA cleavage.

Data set [2] addresses T2, 2-5A-dependent ribonuclease (Homo sapiens) (UniProt Q05823).
T2 sequence (whole entry): T1 sequence (Q05823 whole entry)
As to the kind of experiment: […] of human RNaseL ANK domain expressed in Escherichia col assessed as 5' flurescein-r(C11U2C7)-3' RNA cleavage relative to control. More on the design: concentration or dose not given beside the values.

Data set [3] can be described thus: Stability assessed as half life. In kind it is physicochemical.

As for `Nc1ncnc2c1ncn2[C@@H]1O[C@H](COP(=O)(O)O[C@@H]2[C@H](O)[C@@H](COP(=O)(O)O[C@@H]3[C@H](O)[C@@H](COP(=O)(O)O[C@@H]4[C@H](O)[C@@H](CO)O[C@H]4n4cnc5c(N)ncnc54)O[C@H]3n3cnc4c(N)ncnc43)O[C@H]2n2cnc3c(N)ncnc32)[C@@H](O)[C@H]1O`, in data set [1], the EC50 entry is on record as “Not Active”. Moreover, in data set [2], the outcome was inactive. The half-life in data set [3] was determined as 18 min.

Turning to `Nc1ncnc2c1ncn2[C@@H]1O[C@H](COP(=O)(O)O[C@@H]2[C@H](O)[C@@H](COP(=O)(O)O[C@@H]3[C@H](O)[C@@H](COP(=O)(O)O[C@@H]4[C@H](O)[C@@H](COP(=O)(O)O)O[C@H]4n4cnc5c(N)ncnc54)O[C@H]3n3cnc4c(N)ncnc43)O[C@H]2n2cnc3c(N)ncnc32)[C@@H](O)[C@H]1O`, the EC50 in data set [1] (read-out: EC50) turned out to be 9.7 nM. In addition, in data set [2], the Activity was found to be 1%. Besides, in data set [3], the half-life worked out at 14 min.

Consider `Cc1nc2c(N)ncnc2n1[C@@H]1O[C@H](COP(=O)(O)O[C@@H]2[C@H](O)[C@@H](COP(=O)(O)O[C@@H]3[C@H](O)[C@@H](CO)O[C@H]3n3cnc4c(N)ncnc43)O[C@H]2n2cnc3c(N)ncnc32)[C@@H](O)[C@H]1OP(=O)(O)OC[C@H]1O[C@@H](n2cnc3c(N)ncnc32)[C@H](O)[C@@H]1O`, for which the EC50 in data set [1] (read-out: EC50) was above 50 nM. Moreover, the Activity in data set [2] is below 0.19%. The half-life in data set [3] stood at 18 min.

For `Cc1nc2c(N)ncnc2n1[C@@H]1O[C@H](COP(=O)(O)O[C@@H]2[C@H](O)[C@@H](COP(=O)(O)O[C@@H]3[C@H](O)[C@@H](COP(=O)(O)O[C@@H]4[C@H](O)[C@@H](CO)O[C@H]4n4cnc5c(N)ncnc54)O[C@H]3n3cnc4c(N)ncnc43)O[C@H]2n2cnc3c(N)ncnc32)[C@@H](O)[C@H]1O`, the EC50 in data set [1] (read-out: EC50) is 2.5 nM. Further, the Activity in data set [2] came to 3.9%. Further, the half-life in data set [3] is above 90 min.

For the molecule `Cc1nc2c(N)ncnc2n1[C@@H]1O[C@H](COP(=O)(O)O[C@@H]2[C@H](O)[C@@H](COP(=O)(O)O[C@@H]3[C@H](O)[C@@H](COP(=O)(O)O[C@@H]4[C@H](O)[C@@H](COP(=O)(O)O)O[C@H]4n4cnc5c(N)ncnc54)O[C@H]3n3cnc4c(N)ncnc43)O[C@H]2n2cnc3c(N)ncnc32)[C@@H](O)[C@H]1O`, the concentration giving a half-maximal response (EC50) in data set [1] (read-out: EC50) worked out at 2.5 nM. For the same molecule, the Activity in data set [2] is 3.9%.

Turning to `Cc1nc2c(N)ncnc2n1[C@@H]1O[C@H](COP(=O)(O)O[C@@H]2[C@H](O)[C@@H](COP(=O)(O)O[C@@H]3[C@H](O)[C@@H](CO)O[C@H]3n3cnc4c(N)ncnc43)O[C@H]2n2cnc3c(N)ncnc32)[C@@H](O)[C@H]1O`, the EC50 in data set [1] (read-out: EC50) is above 50 nM. Moreover, the Activity in data set [2] was below 0.19%. The half-life in data set [3] came to 18 min.
